For two compounds, IC50 results are on record in US8143290B2, “Chemical compounds 572” (AstraZeneca AB, priority 2006, dated 2012).

The structures appear in SMILES notation. pIC50: −log10 of the molar value.

The target in this test is T1, recombinant human GR (Homo sapiens, UniProt P04150).
T1 construct: purchased Panvera/Invitrogen P2812 (kit P2893)
T1 sequence (P04150 1-777): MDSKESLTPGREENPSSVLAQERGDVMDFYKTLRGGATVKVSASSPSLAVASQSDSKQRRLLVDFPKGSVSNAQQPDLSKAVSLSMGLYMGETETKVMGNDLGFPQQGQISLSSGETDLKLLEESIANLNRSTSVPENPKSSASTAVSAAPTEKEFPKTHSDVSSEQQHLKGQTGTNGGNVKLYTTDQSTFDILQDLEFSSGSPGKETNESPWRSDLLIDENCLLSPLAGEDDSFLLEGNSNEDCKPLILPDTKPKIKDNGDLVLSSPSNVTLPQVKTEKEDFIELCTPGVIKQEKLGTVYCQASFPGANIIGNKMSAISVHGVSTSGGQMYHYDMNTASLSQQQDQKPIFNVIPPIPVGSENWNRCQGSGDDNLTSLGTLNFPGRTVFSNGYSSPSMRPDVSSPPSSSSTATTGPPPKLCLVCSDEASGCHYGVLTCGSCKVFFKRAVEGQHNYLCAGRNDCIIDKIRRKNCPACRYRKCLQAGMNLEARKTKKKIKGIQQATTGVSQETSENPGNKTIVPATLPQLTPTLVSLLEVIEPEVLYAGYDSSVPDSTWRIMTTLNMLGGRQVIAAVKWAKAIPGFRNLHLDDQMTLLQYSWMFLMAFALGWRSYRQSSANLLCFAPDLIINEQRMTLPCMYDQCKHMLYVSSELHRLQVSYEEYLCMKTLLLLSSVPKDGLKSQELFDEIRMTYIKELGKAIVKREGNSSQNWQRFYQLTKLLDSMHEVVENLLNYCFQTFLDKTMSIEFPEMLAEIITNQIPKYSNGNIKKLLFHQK
Put plainly: Human Glucocorticoid Receptor (GR) Assay, fluorescence polarization. The class given is binding. The following applies: GS Red tracer, incubated 2 h at r.t., XLfit model 205, read-out: GRhuFL_FP_v2 Mean IC50. Put shortly: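 After 2 h dark incubation at r.t., polarization reported displacement of the GS Red tracer from recombinant GR, in buffer with phosphate, molybdate, EDTA, DTT and Stabilizing Peptide. Controls: dexamethasone (100%) and DMSO (0%).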
(In general: Polarisation of emitted light reports the rotation of a fluorescent probe.)

For orientation: pIC50 means the negative decadic logarithm of the IC50, by convention in mol/L. On to `COc1ccccc1[C@@H](Oc1ccc2c(cnn2-c2ccc(F)cc2)c1)[C@H](C)NC(=O)C(C)(C)C` [Example 187, N-[(1R,2S)-1-[1-(4-fluorophenyl)indazol-5-yl]oxy-1-(2-methoxyphenyl)propan-2-yl]-2,2-dimethyl-propanamide], for which the pIC50 is 8.35.

As to `Cc1ccc(C)c([C@@H](Oc2ccc3c(cnn3-c3ccc(F)cc3)c2)[C@H](C)NC(=O)C(F)(F)F)c1` [Example 153, N-[(1R,2S)-1-(2,5-dimethylphenyl)-1-[1-(4-fluorophenyl)indazol-5-yl]oxy-propan-2-yl]-2,2,2-trifluoro-acetamide], the pIC50 is 8.44.
